Test system: human fibroblasts
Assay: TMT proteomics of fibroblasts with and without UV exposure, differential expression and pathway analysis
Format: cell-based
Details: result in words
Experimental: Human fibroblasts were obtained from Cell Applications Inc (Cat. # 106-05a) and were maintained in Dulbecco’s Modified Eagle medium (DMEM, Corning, Cat. #10-013-CV) with 10% fetal bovine serum (Gibco, Cat. #10082147) and 1% penicillin/streptomycin (Gibco, Cat. # 15070-063) in a humidified incubator with 5% CO2 at 37 °C. For ultraviolet radiation, fibroblasts were seeded in a 96-well plate at a density of 25,000 cells/well and maintained at 37 °C for 24 h. Cells were washed once with Hanks’ balanced salt solution (HBSS, Gibco, Cat. #14025-092), then treated for 1 h with different concentrations of compounds prepared in HBSS. Vitamin C (Sigma, Cat. # A5960) served as a positive control. Treated cells were exposed to ultraviolet light (UVP cross-linker, CL1000, 254 nm UV, 8 watts) at a total dose of 20 mJ/cm^2. Following irradiation, the HBSS was replaced with culture medium containing the same concentration of compounds as before irradiation, and cells were again maintained at 37 °C. Cell viability was measured at 24 h post-irradiation using CellTiter-Glo according to the manufacturer’s instructions (Promega, Cat.# G7571). Results were expressed as relative cell viability (%) with respect to control cells (cells without ultraviolet irradiation or compound treatment).
Frozen cell pellets were dissolved for 15 min in 6M Guanidinium Chloride at room temperature to lyse cells. Then, each solution was run on a 10 kDa filter (Pall, TX) and washed with 50 μL of TEAB buffer at 3000 rpm. FASP Digestion ([56]): A stock solution of Trypsin Platinum, Mass Spec Grade (Promega) at 100 μg/mL in 50 mM TEAB, and a specific volume of stock trypsin was added to each sample vial for each set of […] using a 1:50 ratio (Trypsin:Protein). Samples were incubated for 2 h at 50 °C and shaken/mixed at 350 rpm on an Eppendorf ThermoMixer C. TMT Labeling: Samples, now peptides, were labeled using 4 μL of TMTpro Mass Tag Labels (ThermoScientific). After labeling, samples were then shaken/mixed for 45 min to ensure labels were covalently bonded to peptides. The labeling reaction was quenched for 10 min using 1 μL of 5% hydroxyalamine. After quenching, samples were pooled into one 2 mL Eppendorf tube and then dried down using an Eppendorf Vacufuge Plus. Desalting Samples: Dried samples were resuspended in 300 μL of 0.1% TFA in ultrapure HPLC-grade water and vortexed to ensure full solubility. Samples were then desalted using Pierce^TM Peptide Desalting Spin Columns (ThermoScientific). Final eluates (desalted samples) contained 600 μL of 50% HPLC-grade Acetonitrile and 50% ultrapure HPLC-grade water. Desalted samples were then transferred to HPLC vials and were again dried down. […]

## O=C1O[C@H]([C@@H](O)CO)C(O)=C1O [Vitamin C, reference compound]
UV-irradiated cells
  proteins/pathways up- and downregulated, exposed to UV radiation: primarily upregulated proteins associated with cell cycle/DNA repair-related pathways
Control conditions without UV
  proteins/pathways up- and downregulated, without UV treatment: opposite effects

Reference: PMC12439166, “Dietary flavonoids form supramolecular assemblies, alter biochemistry, and enhance cell resilience” (Frontiers in Nutrition, 2025)
